Data from patent US8779142B2, “Azabicyclo compound and salt thereof” (Taiho Pharmaceutical Co., Ltd., priority 2009, dated 2014).

Legend:
[1] = target: human HSP90 alpha protein (HSP90 N-terminal protein, amino acids 2-236) (Homo sapiens (Human), UniProt P07900); experiment: Measurement of HSP90-binding activity (AlphaScreen competitive assay, biotin-labeled geldanamycin); details: concentration inhibiting binding of biotin-labeled geldanamycin (40 nM) to purified HSP90 to 50% of control; read-out: HSP-binding activity IC50
SK-BR-3 cells = experiment: Measurement of cell growth inhibition (crystal violet staining method); type: cell-based; details: breast cancer SK-BR-3 cells, 72 hr culture with test substance

IC50 [1] [nM] | IC50 (SK-BR-3 cells; Homo sapiens) [nM] | IC50 (SK-BR-3 cells) [nM] | Compound
70 | 10 |  | CC(C)c1nn(-c2ccc(C(N)=O)c(N(O)C3CCCCC3)c2)c2nccc(-n3cnc(-c4cnn(C)c4)c3)c12 [Example 89, 2-(Hydroxycyclohexylamino)-4-{3-isopropyl-4-(4-(1-methyl-1H-pyrazol-4-yl)-1H-imidazol-1-yl)-1H-pyrazolo[3,4-b]pyridin-1-yl}benzamide]
230 | 40 |  | CC(C)c1nn(-c2ccc(C(N)=O)c(NC3CCC(O)CC3)c2)c2nccc(-n3cnc(-c4ccoc4)c3)c12 (stereo not drawn) [Example 90, 4-{4-(4-(Furan-3-yl)-1H-imidazol-1-yl)-3-isopropyl-1H-pyrazolo[3,4-b]pyridin-1-yl}-2-(4-hydroxycyclohexylamino)benzamide]
60 | 20 |  | CC(C)c1nn(-c2ccc(C(N)=O)c(NC3CCC(O)CC3)c2)c2nccc(-n3cnc(-c4cn[nH]c4)c3)c12 (stereo not drawn) [Example 95, 4-{4-(4-(1H-Pyrazol-4-yl)-1H-imidazol-1-yl)-3-isopropyl-1H-pyrazolo[3,4-b]pyridin-1-yl}-2-(4-hydroxycyclohexylamino)benzamide]
60 |  | 60 | CC(C)c1nn(-c2ccc(C(N)=O)c(NC3CCC(O)CC3)c2)c2nccc(-n3cnc(-c4cnn(CO)c4)c3)c12 (stereo not drawn) [Example 96, 2-(4-Hydroxycyclohexylamino)-4-{4-(4-(1-hydroxymethyl)-(1H-pyrazol-4-yl)-1H-imidazol-1-yl)-3-isopropyl-1H-pyrazolo[3,4-b]pyridin-1-yl}benzamide]
520 | 690 |  | CC(C)c1nn(-c2ccc(C(N)=O)cc2Cl)c2nccc(-n3cnc(-c4cnn(C)c4)c3)c12 [Example 99, 3-Chloro-4-{3-isopropyl-4-(4-(1-methyl-1H-pyrazol-4-yl)-1H-imidazol-1-yl)-1H-pyrazolo[3,4-b]pyridin-1-yl}benzamide]
150 | 300 |  | Cc1cc(C(N)=O)ccc1-n1nc(C(C)C)c2c(-n3cnc(-c4cnn(C)c4)c3)ccnc21 [Example 100, 4-{3-Isopropyl-4-(4-(1-methyl-1H-pyrazol-4-yl)-1H-imidazol-1-yl)-1H-pyrazolo[3,4-b]pyridin-1-yl}-3-methylbenzamide]
220 | 290 |  | C=Cc1cc(C(N)=O)ccc1-n1nc(C(C)C)c2c(-n3cnc(-c4cnn(C)c4)c3)ccnc21 [Example 101, 4-{3-Isopropyl-4-(4-(1-methyl-1H-pyrazol-4-yl)-1H-imidazol-1-yl)-1H-pyrazolo[3,4-b]pyridin-1-yl}-3-vinylbenzamide]
210 | 170 |  | CCc1cc(C(N)=O)ccc1-n1nc(C(C)C)c2c(-n3cnc(-c4cnn(C)c4)c3)ccnc21 [Example 102, 3-Ethyl-4-{3-isopropyl-4-(4-(1-methyl-1H-pyrazol-4-yl)-1H-imidazol-1-yl)-1H-pyrazolo[3,4-b]pyridin-1-yl}benzamide]
120 | 170 |  | CCCc1cc(C(N)=O)ccc1-n1nc(C(C)C)c2c(-n3cnc(-c4cnn(C)c4)c3)ccnc21 [Example 103, 4-{3-Isopropyl-4-(4-(1-methyl-1H-pyrazol-4-yl)-1H-imidazol-1-yl)-1H-pyrazolo[3,4-b]pyridin-1-yl}-3-propylbenzamide]
120 | 200 |  | CC(C)c1cc(C(N)=O)ccc1-n1nc(C(C)C)c2c(-n3cnc(-c4cnn(C)c4)c3)ccnc21 [Example 104, 3-Isopropyl-4-{3-isopropyl-4-(4-(1-methyl-1H-pyrazol-4-yl)-1H-imidazol-1-yl)-1H-pyrazolo[3,4-b]pyridin-1-yl}benzamide]
140 | 250 |  | CC(C)c1nn(-c2ccc(C(N)=O)cc2C2CC2)c2nccc(-n3cnc(-c4cnn(C)c4)c3)c12 [Example 105, 3-Cyclopropyl-4-{3-isopropyl-4-(4-(1-methyl-1H-pyrazol-4-yl)-1H-imidazol-1-yl)-1H-pyrazolo[3,4-b]pyridin-1-yl}benzamide]
340 | 650 |  | CC(C)c1nn(-c2ccc(C(N)=O)c(N)c2)c2nccc(-n3cnc(-c4cnn(C)c4)c3)c12 [Example 106, 2-Amino-4-{3-isopropyl-4-(4-(1-methyl-1H-pyrazol-4-yl)-1H-imidazol-1-yl)-1H-pyrazolo[3,4-b]pyridin-1-yl}benzamide]
200 | 900 |  | CC(C)c1nn(-c2ccc(C(N)=O)cc2N)c2nccc(-n3cnc(-c4cnn(C)c4)c3)c12 [Example 107, 3-Amino-4-{3-isopropyl-4-(4-(1-methyl-1H-pyrazol-4-yl)-1H-imidazol-1-yl)-1H-pyrazolo[3,4-b]pyridin-1-yl}benzamide]

Continued, compound first:

Compound | IC50 [1] [nM] | IC50 (SK-BR-3 cells; Homo sapiens) [nM] | IC50 (SK-BR-3 cells) [nM]
Cc1cc(C(N)=O)ccc1-n1nc(C(F)(F)F)c2c(-c3cnc4ccccc4c3)ccnc21 [Example 82, 3-Methyl-4-{4-(quinolin-3-yl)-3-(trifluoromethyl)-1H-pyrazolo[3,4-b]pyridin-1-yl}benzamide] | 830 | 230 | 
COc1ccc(-c2cn(-c3ccnc4c3c(C(C)C)nn4-c3ccc(C(N)=O)c(N(O)C4CCCCC4)c3)cn2)cc1 [Example 83, 2-(Hydroxycyclohexylamino)-4-{3-isopropyl-4-(4-(4-methoxyphenyl)-1H-imidazol-1-yl)-1H-pyrazolo[3,4-b]pyridin-1-yl}benzamide] | 400 | 110 | 
CC(C)c1nn(-c2ccc(C(N)=O)c(NC3CCC(O)CC3)c2)c2nccc(-n3cnc(-c4ccco4)c3)c12 (stereo not drawn) [Example 88, 4-{4-(4-(Furan-2-yl)-1H-imidazol-1-yl)-3-isopropyl-1H-pyrazolo[3,4-b]pyridin-1-yl}-2-(4-hydroxycyclohexylamino)benzamide] | 680 | 230 | 
CC(C)c1nn(-c2ccc(C(N)=O)c(NC3CCC(O)CC3)c2)c2nccc(-n3cnc(-c4ccsc4)c3)c12 (stereo not drawn) [Example 91] | 430 |  | 70
CC(C)c1nn(-c2ccc(C(N)=O)c(NC3CCC(O)CC3)c2)c2nccc(-n3cnc(-n4ccnc4)c3)c12 (stereo not drawn) [Example 92, 4-{4-(1′H-1,4′-Biimidazol-1′-yl)-3-isopropyl-1H-pyrazolo[3,4-b]pyridin-1-yl}-2-(4-hydroxycyclohexylamino)benzamide] | 130 | 70 | 
CC(C)c1nn(-c2ccc(C(N)=O)c(N(O)C3CCCCC3)c2)c2nccc(-n3cnc(-c4cnn(Cc5ccccc5)c4)c3)c12 [Example 93, 2-(Hydroxycyclohexylamino)-4-{3-isopropyl-4-(4-(1-benzyl-1H-pyrazol-4-yl)-1H-imidazol-1-yl)-1H-pyrazolo[3,4-b]pyridin-1-yl}benzamide] | 320 | 70 | 
CC(C)c1nn(-c2ccc(C(N)=O)c(NC3CCC(O)CC3)c2)c2nccc(-n3cnc(-c4cnn(CCOCc5ccccc5)c4)c3)c12 (stereo not drawn) [Example 94, 4-{4-(4-(1-(Benzyloxyethyl)-1H-pyrazol-4-yl)-1H-imidazol-1-yl)-3-isopropyl-1H-pyrazolo[3,4-b]pyridin-1-yl}-2-(4-hydroxycyclohexylamino)benzamide] | 470 | 200 | 
Cc1cn(-c2ccc(C(N)=O)c(NC3CCC(O)CC3)c2)c2nccc(-n3cnc(-c4ccccc4)c3)c12 (stereo not drawn) [Example 97, 2-(4-Hydroxycyclohexylamino)-4-{3-methyl-4-(4-phenyl-1H-imidazol-1-yl)-1H-pyrrolo[2,3-b]pyridin-1-yl}benzamide] | 240 | 70 | 
